Test results as given in publication PMC3504309 (ChemMedChem, 2011).

System: human K562 cells
Test: Human K562 growth inhibition assay
Assay type: cell-based
Settings: for Antiproliferative effect on growth of human K562 cells (in words): 333 μM was the highest concentration tested; for IC50: Homo sapiens, K562, 48 h, read-out: Growth inhibition of human K562 cells IC50

Row | SMILES | Antiproliferative effect on growth of human K562 cells (in words) | IC50 [µM]
1 | CO[C@@H](C(=O)NCC1CCCN(C(=O)C(C)C)C1)[C@H](O)[C@@H](O)[C@H](O)/C=C/C(C)(C)C (stereo partly drawn) [Compound 4, (2R,3R,4S,5R,E)-3,4,5-trihydroxy-N-((1-isobutyrylpiperidin-3-yl)methyl)-2-methoxy-8,8-dimethylnon-6-enamide] | no or weak activity | > 333
2 | CO[C@@H](C(=O)NCC1CCCN(C(=O)C2CC2)C1)[C@H](O)[C@@H](O)[C@H](O)/C=C/C(C)(C)C (stereo partly drawn) [Compound 5, (2R,3R,4S,5R,E)-N-((1-(cyclopropanecarbonyl)piperidin-3-yl)methyl)-3,4,5-trihydroxy-2-methoxy-8,8-dimethylnon-6-enamide] | no or weak activity | > 333
3 | CO[C@@H](C(=O)NCCC(c1ccccc1)c1ccco1)[C@H](O)[C@@H](O)[C@H](O)/C=C/C(C)(C)C (stereo partly drawn) [Compound 6, (2R,3R,4S,5R,E)-N-(3-(furan-2-yl)-3-phenylpropyl)-3,4,5-trihydroxy-2-methoxy-8,8-dimethylnon-6-enamide] | low and reproducible activity | 79.6
4 | CO[C@@H](C(=O)NCCC(c1ccc(F)cc1)c1ccco1)[C@H](O)[C@@H](O)[C@H](O)/C=C/C(C)(C)C (stereo partly drawn) [Compound 7, (2R,3R,4S,5R,E)-N-(3-(4-fluorophenyl)-3-(furan-2-yl)propyl)-3,4,5-trihydroxy-2-methoxy-8,8-dimethylnon-6-enamide] | low and reproducible activity | 96.5
5 | CO[C@@H](C(=O)NC1Cc2ccccc2C1)[C@H](O)[C@@H](O)[C@H](O)/C=C/C(C)(C)C [Compound 8, (2R,3R,4S,5R,E)-N-(2,3-dihydro-1H-inden-2-yl)-3,4,5-trihydroxy-2-methoxy-8,8-dimethylnon-6-enamide] | no or weak activity | > 333
6 | CO[C@@H](C(=O)NCC(N)=O)[C@H](O)[C@@H](O)[C@H](O)/C=C/C(C)(C)C [Compound 9, (2R,3R,4S,5R,E)-N-(2-amino-2-oxoethyl)-3,4,5-trihydroxy-2-methoxy-8,8-dimethylnon-6-enamide] | no or weak activity | > 333
7 | CO[C@@H](C(=O)NCCOc1c(C)cc(C)cc1C)[C@H](O)[C@@H](O)[C@H](O)/C=C/C(C)(C)C [Compound 10, (2R,3R,4S,5R,E)-3,4,5-trihydroxy-N-(2-(mesityloxy)ethyl)-2-methoxy-8,8-dimethylnon-6-enamide] | low and reproducible activity | 37.8
